Assay results: patent US20260055079A1, “PHTHALAZINONE COMPOUNDS AS PARP7 INHIBITORS” (AZKARRA THERAPEUTICS, INC., priority 2022, published 2026)
Where two headings read alike, the source gives them in different places.

Tests used:
[1] = molecular target: His-GST-PARP7 (Homo sapiens (Human), UniProt Q7Z3E1); assay: PARP7 biochemical assay; details: read-out: PARP7 IC50
[2] = molecular target: PARP2 (Homo sapiens (Human), UniProt Q9UGN5); assay: PARP2 biochemical assay
[3] = test system: NCI-H1373 (human lung adenocarcinoma) cells; assay: Cell proliferation assay (CellTiter-Glo), NCI-H1373; format: cell-based; details: Homo sapiens, NCI-H1373, 144 h; 6 days, CellTiter-Glo; read-out: NCI-H1373 GI50
[4] = test system: HARA (human lung squamous cell carcinoma) cells; assay: Cell proliferation assay (CellTiter-Glo), HARA; format: cell-based; details: Homo sapiens, 144 h; 6 days, CellTiter-Glo; read-out: HARA GI50

Chain of PARP2 (Q9UGN5 whole entry): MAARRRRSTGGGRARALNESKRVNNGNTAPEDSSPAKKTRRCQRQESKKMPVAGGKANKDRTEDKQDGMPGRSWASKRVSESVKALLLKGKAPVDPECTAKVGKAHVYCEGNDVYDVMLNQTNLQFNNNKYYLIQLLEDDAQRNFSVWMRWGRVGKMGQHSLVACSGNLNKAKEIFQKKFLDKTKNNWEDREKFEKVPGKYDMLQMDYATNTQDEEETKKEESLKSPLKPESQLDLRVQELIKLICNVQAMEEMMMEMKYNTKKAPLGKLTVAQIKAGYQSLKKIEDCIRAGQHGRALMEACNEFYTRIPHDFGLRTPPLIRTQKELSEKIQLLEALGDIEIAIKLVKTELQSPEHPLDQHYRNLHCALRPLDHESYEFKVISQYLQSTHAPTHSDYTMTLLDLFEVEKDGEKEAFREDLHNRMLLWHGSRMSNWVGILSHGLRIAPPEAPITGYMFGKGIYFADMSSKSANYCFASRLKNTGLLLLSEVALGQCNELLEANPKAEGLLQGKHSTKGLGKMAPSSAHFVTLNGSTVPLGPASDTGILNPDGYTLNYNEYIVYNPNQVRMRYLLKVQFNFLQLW
Chain of His-GST-PARP7 (Q7Z3E1 whole entry): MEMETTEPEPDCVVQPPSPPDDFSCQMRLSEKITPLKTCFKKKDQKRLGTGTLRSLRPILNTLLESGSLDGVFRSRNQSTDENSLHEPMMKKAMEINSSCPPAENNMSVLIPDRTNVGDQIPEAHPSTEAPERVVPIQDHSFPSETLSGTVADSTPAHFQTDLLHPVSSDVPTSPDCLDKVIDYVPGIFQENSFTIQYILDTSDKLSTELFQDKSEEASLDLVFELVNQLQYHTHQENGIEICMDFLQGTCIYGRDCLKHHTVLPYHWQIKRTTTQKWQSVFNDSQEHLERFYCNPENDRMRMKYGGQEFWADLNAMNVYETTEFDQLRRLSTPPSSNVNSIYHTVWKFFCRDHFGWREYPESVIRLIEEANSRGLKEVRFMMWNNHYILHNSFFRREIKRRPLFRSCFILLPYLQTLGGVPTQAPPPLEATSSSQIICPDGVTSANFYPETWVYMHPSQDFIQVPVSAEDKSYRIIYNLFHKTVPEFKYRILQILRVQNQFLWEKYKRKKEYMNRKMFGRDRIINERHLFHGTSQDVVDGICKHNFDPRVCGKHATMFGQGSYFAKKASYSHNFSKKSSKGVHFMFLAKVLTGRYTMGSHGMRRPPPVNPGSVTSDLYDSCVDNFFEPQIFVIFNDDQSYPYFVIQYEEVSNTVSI

Compound | IC50 [1] | IC50 ([2]; read-out: PARP2 IC50) | IC50 [2] | GI50 [3] | GI50 [4]
4-(4-Fluoro-3-(4-(5-(trifluoromethyl)pyrimidin-2-yl)piperazine-1-carbonyl)benzyl)-6-isobutylphthalazin-1(2H)-one [Example 44] | < 50 nM | 50 to 100 nM | – | – | –
6-(4-(2-Fluoro-5-((4-oxo-7-(prop-2-yn-1-yloxy)-3,4-dihydrophthalazin-1-yl)methyl)benzoyl)piperazin-1-yl)nicotinonitrile [Example 26] | < 50 nM | 100 to 500 nM | – | – | –
N#Cc1ccc(N2CCN(C(=O)c3cc(Cc4n[nH]c(=O)c5ccc(N6CC(F)(F)C6)cc45)ccc3F)CC2)nc1 [Example 18, 6-(4-(5-((7-(3,3-Difluoroazetidin-1-yl)-4-oxo-3,4-dihydrophthalazin-1-yl)methyl)-2-fluorobenzoyl)piperazin-1-yl)nicotinonitrile] | < 50 nM | 100 to 500 nM | – | – | –
N#Cc1ccc(N2CCN(C(=O)c3cc(Cc4n[nH]c(=O)c5ccc(C#CC(F)(F)F)cc45)ccc3F)CC2)nc1 [Example 24, 6-(4-(2-Fluoro-5-((4-oxo-7-(3,3,3-trifluoroprop-1-ynyl)-3,4-dihydrophthalazin-1-yl)methyl)benzoyl)piperazin-1-yl)nicotinonitrile] | < 50 nM | 100 to 500 nM | – | – | –
N#Cc1ccc(N2CCN(C(=O)c3cc(Cc4n[nH]c(=O)c5ccc(CCC(F)(F)F)cc45)ccc3F)CC2)nc1 [Example 25, 6-(4-(2-Fluoro-5-((4-oxo-7-(3,3,3-trifluoropropyl)-3,4-dihydrophthalazin-1-yl)methyl)benzoyl)piperazin-1-yl)nicotinonitrile] | – | 100 to 500 nM | – | – | –
N#Cc1ccc(N2CCN(C(=O)c3cc(Cc4n[nH]c(=O)c5ccc(/C=C/C(F)(F)F)cc45)ccc3F)CC2)nc1 [Example 27, (E)-6-(4-(2-Fluoro-5-((4-oxo-7-(3,3,3-trifluoroprop-1-enyl)-3,4-dihydrophthalazin-1-yl)methyl)benzoyl)piperazin-1-yl)nicotinonitrile] | – | – | 50 to 100 nM | – | –
N#Cc1ccc(N2CCN(C(=O)c3cc(Cc4n[nH]c(=O)c5ccc(C#CC6CC6)cc45)ccc3F)CC2)nc1 [Example 37, 6-(4-(5-((7-(Cyclopropylethynyl)-4-oxo-3,4-dihydrophthalazin-1-yl)methyl)-2-fluorobenzoyl)piperazin-1-yl)nicotinonitrile] | 100 to 500 nM | 500 to 2000 nM | – | – | –
N#Cc1ccc(N2CCN(C(=O)c3cc(Cc4n[nH]c(=O)c5ccc(C6CC6)cc45)ccc3F)CC2)nc1 [Example 40, 6-(4-(5-((7-Cyclopropyl-4-oxo-3,4-dihydrophthalazin-1-yl)methyl)-2-fluorobenzoyl)piperazin-1-yl)nicotinonitrile] | < 50 nM | 100 to 500 nM | – | – | –
CC(C)(C)Cc1ccc2c(=O)[nH]nc(Cc3ccc(F)c(C(=O)N4CCN(c5ccc(C#N)cn5)CC4)c3)c2c1 [Example 41, 6-(4-(2-Fluoro-5-((7-neopentyl-4-oxo-3,4-dihydrophthalazin-1-yl)methyl)benzoyl)piperazin-1-yl)nicotinonitrile] | 100 to 500 nM | 100 to 500 nM | – | – | –
CCc1ccc2c(=O)[nH]nc(Cc3ccc(F)c(C(=O)N4CCN(c5ncc(C(F)(F)F)cn5)CC4)c3)c2c1 [Example 43, 6-Ethyl-4-(4-fluoro-3-(4-(5-(trifluoromethyl)pyrimidin-2-yl)piperazine-1-carbonyl)benzyl)phthalazin-1(2H)-one] | – | 100 to 500 nM | – | – | –
O=C(c1cc(Cc2n[nH]c(=O)c3ccc(C4CC4)cc23)ccc1F)N1CCN(c2ncc(C(F)(F)F)cn2)CC1 [Example 45, 6-Cyclopropyl-4-(4-fluoro-3-(4-(5-(trifluoromethyl)pyrimidin-2-yl)piperazine-1-carbonyl)benzyl)phthalazin-1(2H)-one] | < 50 nM | 100 to 500 nM | – | – | –
CN(C)CC#Cc1ccc2c(=O)[nH]nc(Cc3ccc(F)c(C(=O)N4CCN(c5ncc(C(F)(F)F)cn5)CC4)c3)c2c1 [Example 46, 6-(3-(Dimethylamino)prop-1-yn-1-yl)-4-(4-fluoro-3-(4-(5-(trifluoromethyl)pyrimidin-2-yl)piperazine-1-carbonyl)benzyl)phthalazin-1(2H)-one] | < 50 nM | 100 to 500 nM | – | – | –
O=C(c1cc(Cc2n[nH]c(=O)c3ccc(C#CC4CC4)cc23)ccc1F)N1CCN(c2ncc(C(F)(F)F)cn2)CC1 [Example 47, 6-(Cyclopropylethynyl)-4-(4-fluoro-3-(4-(5-(trifluoromethyl)pyrimidin-2-yl)piperazine-1-carbonyl)benzyl)phthalazin-1(2H)-one] | 100 to 500 nM | 500 to 2000 nM | – | – | –
O=C(c1cc(Cc2n[nH]c(=O)c3ccc(C#CC(F)(F)F)cc23)ccc1F)N1CCN(c2ncc(C(F)(F)F)cn2)CC1 [Example 49, 4-(4-Fluoro-3-(4-(5-(trifluoromethyl)pyrimidin-2-yl)piperazine-1-carbonyl)benzyl)-6-(3,3,3-trifluoroprop-1-yn-1-yl)phthalazin-1(2H)-one] | 100 to 500 nM | 100 to 500 nM | – | – | –
CC#Cc1ccc2c(=O)[nH]nc(Cc3ccc(F)c(C(=O)N4CCN(c5ccc(C#N)cn5)CC4C)c3)c2c1 (centres unmarked) [Example 61, 6-(4-(2-Fluoro-5-((4-oxo-7-(prop-1-yn-1-yl)-3,4-dihydrophthalazin-1-yl)methyl)benzoyl)-3-methylpiperazin-1-yl)nicotinonitrile] | < 50 nM | < 50 nM | – | – | –
CC#Cc1ccc2c(=O)[nH]nc(Cc3ccc(F)c(C(=O)N4C5CCC4CN(c4ccc(C#N)cn4)C5)c3)c2c1 [Example 62, 6-(8-(2-Fluoro-5-((4-oxo-7-(prop-1-yn-1-yl)-3,4-dihydrophthalazin-1-yl)methyl)benzoyl)-3,8-diazabicyclo[3.2.1]octan-3-yl)nicotinonitrile] | < 50 nM | – | 500 to 2000 nM | – | –
CC#Cc1ccc2c(=O)[nH]nc(Cc3ccc(F)c(C(=O)N4CCN(c5ccc(C#N)cn5)C(C)C4)c3)c2c1 (centres unmarked) [Example 72, 6-(4-(2-Fluoro-5-((4-oxo-7-(prop-1-ynyl)-3,4-dihydrophthalazin-1-yl)methyl)benzoyl)-2-methylpiperazin-1-yl)nicotinonitrile] | < 50 nM | 100 to 500 nM | – | – | –
Cc1cc(N2CCN(C(=O)c3cc(Cc4n[nH]c(=O)c5ccc(OC6CCC6)cc45)ccc3F)CC2)ncc1C#N [Example 134, 6-(4-(5-((7-cyclobutoxy-4-oxo-3,4-dihydrophthalazin-1-yl)methyl)-2-fluorobenzoyl)piperazin-1-yl)-4-methylnicotinonitrile] | < 50 nM | – | – | < 100 nM | 100 to 1000 nM
COc1nc(N2CCN(C(=O)c3cc(Cc4n[nH]c(=O)c5ccc(OC6CCC6)cc45)ccc3F)CC2)ccc1C#N [Example 136, 6-(4-(5-((7-cyclobutoxy-4-oxo-3,4-dihydrophthalazin-1-yl)methyl)-2-fluorobenzoyl)piperazin-1-yl)-2-methoxynicotinonitrile] | 50 to 100 nM | – | – | 100 to 1000 nM | > 5000 nM
O=C(c1cc(Cc2n[nH]c(=O)c3ccc(OC4CCC4)cc23)ccc1F)N1CCN(c2ccc(C(F)(F)F)cn2)CC1 [Example 155, 6-cyclobutoxy-4-(4-fluoro-3-(4-(5-(trifluoromethyl)pyridin-2-yl)piperazine-1-carbonyl)benzyl)phthalazin-1(2H)-one] | < 50 nM | – | – | < 100 nM | 1000 to 5000 nM
O=C(c1cc(Cc2n[nH]c(=O)c3ccc(OC4CCC4)cc23)ccc1F)N1CCN(c2cnc(C(F)(F)F)cn2)CC1 [Example 160, 6-cyclobutoxy-4-(4-fluoro-3-(4-(5-(trifluoromethyl)pyrazin-2-yl)piperazine-1-carbonyl)benzyl)phthalazin-1(2H)-one] | < 50 nM | – | – | < 100 nM | 1000 to 5000 nM
O=C(c1cc(Cc2n[nH]c(=O)c3ccc(OC4CCC4)cc23)ccc1F)N1CCN(c2ncc(C3CC3)cn2)CC1 [Example 162, 6-cyclobutoxy-4-(3-(4-(5-cyclopropylpyrimidin-2-yl)piperazine-1-carbonyl)-4-fluorobenzyl)phthalazin-1(2H)-one] | < 50 nM | – | – | < 100 nM | 100 to 1000 nM
CC(CC(=O)N1CCN(c2ccc(C#N)cn2)CC1)NCc1n[nH]c(=O)c2ccc(OC3CC3)cc12 (centres unmarked) [Example 196, 6-(4-(3-(((7-Cyclopropoxy-4-oxo-3,4-dihydrophthalazin-1-yl)methyl)amino)butanoyl)piperazin-1-yl)nicotinonitrile] | < 50 nM | – | – | 1000 to 5000 nM | 1000 to 5000 nM
CC#Cc1ccc2c(=O)[nH]nc(Cc3ccc(F)c(C(=O)NCCN(CC)c4ccc(C#N)cn4)c3)c2c1 [Example 197, N-(2-((5-cyanopyridin-2-yl)(ethyl)amino)ethyl)-2-fluoro-5-((4-oxo-7-(prop-1-yn-1-yl)-3,4-dihydrophthalazin-1-yl)methyl)benzamide] | < 50 nM | > 2000 nM | – | – | –
CC#Cc1ccc2c(=O)[nH]nc(Cc3ccc(F)c(C(=O)N(C)CCN(CC)c4ccc(C#N)cn4)c3)c2c1 [Example 198, N-(2-((5-Cyanopyridin-2-yl)(ethyl)amino)ethyl)-2-fluoro-N-methyl-5-((4-oxo-7-(prop-1-yn-1-yl)-3,4-dihydrophthalazin-1-yl)methyl)benzamide] | < 50 nM | > 2000 nM | – | – | –
N#Cc1ccc(N2CCN(c3noc4c(Cc5n[nH]c(=O)c6ccc(OC7CCC7)cc56)cccc34)CC2)nc1 [Example 208, 6-(4-(7-((7-Cyclobutoxy-4-oxo-3,4-dihydrophthalazin-1-yl)methyl)benzo[d]isoxazol-3-yl)piperazin-1-yl)nicotinonitrile] | 100 to 500 nM | – | – | 1000 to 5000 nM | 1000 to 5000 nM
N#Cc1ccc(N2CCN(c3noc4ccc(Cc5n[nH]c(=O)c6ccc(OC7CCC7)cc56)cc34)CC2)nc1 [Example 211, 6-(4-(5-((7-cyclobutoxy-4-oxo-3,4-dihydrophthalazin-1-yl)methyl)benzo[d]isoxazol-3-yl)piperazin-1-yl)nicotinonitrile] | 100 to 500 nM | – | – | 1000 to 5000 nM | 1000 to 5000 nM
